Measured values published in US20120058504A1, “METHODS AND APPARATUS FOR DIELECT[…] AND MEASUREMENT OF SINGLE CELLS OR OTHER PARTICLES IN MI[…]” (SIMON FRASER UNIVERSITY, priority 2009, published 2012).

Experiments:
[1] = test system: MDR leukemia cancer cell (CEM VLB); test: DNR accumulation and MDR reversal in a single cell, DEP-based microfluidic chip (Chip IV), fluorescence measurement; details: DNR 35 μM, before CsA was delivered, 100-200 s, 35° C.
Method: Furthermore, DEP conditions were optimized to move a single multidrug resistant cancer cell 43 during fluorescence measurement using Chip TV (FIG. 20). Cell 43 was transferred out of fluorescent detection window 47 and back into detection window 47 by switching the voltage between electrodes AB and electrodes BC. When cell 43 was moved out of detection window 47, only the background (Fbackground) was measured. When cell 43 was moved back into detection window 47, the total fluorescence (Ftotal) was measured. By background correction, the absolute fluorescence of cell 43 (Fcell=Ftotal−Fbackground) was obtained. At the same time, a chemo-therapeutic drug, daunorubicin (DNR) was delivered to cell retention region 30 via solution reservoir 18B and microchannel 20B. The uptake of DNR inside a single MDR cancer cell 43 (CEM VLB) was monitored. The measurement results are depicted in FIG. 20b, showing many cycles of cell fluorescence (peaks) and troughs (background). […]
After DEP-based single cell chip 10 (Chip IV, FIG. 20) was used to move leukemia cancer cell 43 into and out of detection window 47 during fluorescence measurement for anticancer drug (for example, daunorubicin (DNR)) accumulation inside cell 43, chip 10 was further used for MDR reversal studies at an elevated temperature (35° C.). […]

CEM VLB cell = test: DNR accumulation in a single adhered cell, SASCA method (chip without DEP electrodes), fluorescence measurement; format: cell-based; details: chip translated, α-MEM medium
Method: (b) The fluorescent measurement of the adhered cell when the chip was translated into the measurement window (the peak provides the total fluorescence) and out of the measurement window (the baseline provides the background).
The SASCA method was performed for comparison with the DEP-based method. The SASCA method was performed in a chip without DEP electrodes. Cell 43 was moved into and out detection window 47 and at the same time DNR was delivered to cell retention region 30 (FIG. 21). In the SASCA method, cell movement was achieved by moving the chip with cell 43 which adheres to the bottom surface of cell retention region 30 in the chip.

COc1cccc2c1C(=O)c1c(O)c3c(c(O)c1C2=O)C[C@@](O)(C(C)=O)C[C@@H]3O[C@H]1C[C@H](N)[C@H](O)[C@H](C)O1 [DNR, daunorubicin]
DNR accumulation in cell (cell fluorescence, peaks minus troughs) [1]: very little DNR accumulation | DNR accumulation in cell (fluorescence of cell over measurement time) (CEM VLB cell): accumulated inside the cell
